The text below walks through data of ChEMBL document CHEMBL2157967, “Chemotherapy of leishmaniasis. Part XI: synthesis and bioevaluation of novel isoxazole containing heteroretinoid and its amide derivatives” (2012).

Activity calls are given as the source filed them. The rule behind the calls is not given here.

For the first experiment, the system named is Leishmania donovani. Put plainly: Antileishmanial activity against Leishmania donovani MHOM/IN/80/Dd8 amastigotes infected in golden hamster assessed as inhibition of parasite growth at 50 mg/kg, ip for 5 days post infection measured on day 7 by Giemsa staining. The class given is functional.
Conditions: not given
In the case of `CCOC(=O)C(=O)CC(=O)/C=C/C1C(C)=CCCC1(C)C` (stereo not given), the “growth inhibition (GI)” value is “inactive”.

Regarding `CC1=CCCC(C)(C)C1/C=C/c1cc(C(=O)N2CCOCC2)no1` (stereo not given), the “growth inhibition (GI)” value was “inactive”.

Sodium stibogluconate: the growth inhibition (GI) came to 89%.

Turning to `CC1=CCCC(C)(C)C1/C=C/c1cc(C(=O)N2CCN(c3ccccc3)CC2)no1` (stereo not given), the “growth inhibition (GI)” value is “inactive”.

The experiment is the same for the next values; noted with them: Leishmania donovani, MHOM/IN/80/Dd8, ip, route intraperitoneal, read-out: GI.
On to `CC1=CCCC(C)(C)C1/C=C/c1cc(C(=O)NN)no1` (stereo not given), for which the inhibition in vivo at 50 mg/kg was 50%.

For `CC1=CCCC(C)(C)C1/C=C/c1cc(C(=O)Nc2ccccc2)no1` (stereo not given), the inhibition in vivo at 50 mg/kg is 74%.

`CCOC(=O)c1cc(/C=C/C2C(C)=CCCC2(C)C)on1` (stereo not given): the inhibition in vivo at 50 mg/kg is 76%.

For `COc1ccc(NC(=O)c2cc(/C=C/C3C(C)=CCCC3(C)C)on2)cc1` (stereo not given), the inhibition in vivo at 50 mg/kg was found to be 58%.

As to `NC[C@@H]1O[C@H](O[C@H]2[C@@H](O)[C@H](O[C@@H]3[C@@H](O)[C@H](N)C[C@H](N)[C@H]3O[C@H]3O[C@H](CO)[C@@H](O)[C@H](O)[C@H]3N)O[C@@H]2CO)[C@H](N)[C@@H](O)[C@@H]1O` [PAROMOMYCIN], the inhibition in vivo at 50 mg/kg worked out at 46.7%.

As to `CC1=CCCC(C)(C)C1/C=C/c1cc(C(=O)Nc2ccc(Cl)cc2)no1` (stereo not given), the inhibition in vivo at 50 mg/kg amounted to 63%.

Consider `CC1=CCCC(C)(C)C1/C=C/c1cc(C(=O)O)no1` (stereo not given), for which the inhibition in vivo at 50 mg/kg is 45%.

As for `CC1=CCCC(C)(C)C1/C=C/c1cc(C(=O)NC2CCCCC2)no1` (stereo not given), the inhibition in vivo at 50 mg/kg is 70%.

For `CC1=CCCC(C)(C)C1/C=C/c1cc(C(=O)NO)no1` (stereo not given), the inhibition in vivo at 50 mg/kg is 65%.

The experiment is the same for the next values; noted with them: route intraperitoneal.
As to `CC1=CCCC(C)(C)C1/C=C/c1cc(C(=O)[N-]N)no1.[Na+]` (stereo not given), the “growth inhibition (GI)” value was determined as 70%.

For the compound `CC1=CCCC(C)(C)C1/C=C/c1cc(C(=O)N[O-])no1.[Na+]` (stereo not given), the “growth inhibition (GI)” value stood at 71%.
